Test results as given in ChEMBL document CHEMBL1201862, “PubChem BioAssay data set” (2004).
One block for each compound: values may come before it. The source made the active and inactive calls.

Key:
[1] = alpha-synuclein stem-loop luciferase translation blockers – H4 neuroglioma cells, luminescence, confirmation (AID 1988); assay type: functional, cell-based
[2] = biological target: T1, RNA-binding protein pos-1 (Caenorhabditis elegans, UniProt G5EF15); experiment: disruptors of C. elegans POS-1 RNA interaction – biochemical, fluorescence polarization, dose response (AID 1964);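 also: purified POS-1 fused to maltose binding protein made in E. coli; potency of compounds blocking POS-1 binding to fluorescent RNA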
T1 sequence (G5EF15 whole entry): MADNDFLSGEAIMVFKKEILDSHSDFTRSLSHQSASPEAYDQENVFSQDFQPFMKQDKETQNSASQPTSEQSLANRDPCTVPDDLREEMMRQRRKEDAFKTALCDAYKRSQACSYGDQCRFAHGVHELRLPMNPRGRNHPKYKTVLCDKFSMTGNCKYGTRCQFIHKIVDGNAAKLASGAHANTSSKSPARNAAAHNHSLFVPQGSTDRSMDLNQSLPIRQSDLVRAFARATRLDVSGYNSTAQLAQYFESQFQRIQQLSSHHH

[3] = biological target: Photoreceptor-specific nuclear receptor (Homo sapiens, UniProt Q9Y5X4); assay type: functional;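 also: potency for compounds that break the NR2E3 corepressor complex and count as activators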
Photoreceptor-specific nuclear receptor, sequence (Q9Y5X4 whole entry): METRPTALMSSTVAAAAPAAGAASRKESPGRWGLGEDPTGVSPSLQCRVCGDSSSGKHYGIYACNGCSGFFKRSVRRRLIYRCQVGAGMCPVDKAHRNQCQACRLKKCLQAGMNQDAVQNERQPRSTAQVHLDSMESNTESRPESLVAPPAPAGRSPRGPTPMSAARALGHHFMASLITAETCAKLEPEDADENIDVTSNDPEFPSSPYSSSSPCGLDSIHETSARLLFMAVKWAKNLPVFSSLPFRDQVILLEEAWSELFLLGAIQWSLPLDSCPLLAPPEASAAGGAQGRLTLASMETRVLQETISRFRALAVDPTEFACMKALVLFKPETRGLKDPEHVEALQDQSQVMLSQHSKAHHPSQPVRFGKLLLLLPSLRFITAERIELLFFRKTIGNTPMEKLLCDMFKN

[4] = biological target: Heat shock protein HSP 90-alpha (Homo sapiens, UniProt P07900); assay type: functional, organism-based
[5] = biological target: DNA (cytosine-5)-methyltransferase 1 (Homo sapiens, UniProt P26358); experiment: inhibition of DNA methylation by DNMT1 – biochemical, fluorescent molecular beacon, confirmation (AID 602386); assay type: functional
DNA (cytosine-5)-methyltransferase 1, sequence (P26358 whole entry): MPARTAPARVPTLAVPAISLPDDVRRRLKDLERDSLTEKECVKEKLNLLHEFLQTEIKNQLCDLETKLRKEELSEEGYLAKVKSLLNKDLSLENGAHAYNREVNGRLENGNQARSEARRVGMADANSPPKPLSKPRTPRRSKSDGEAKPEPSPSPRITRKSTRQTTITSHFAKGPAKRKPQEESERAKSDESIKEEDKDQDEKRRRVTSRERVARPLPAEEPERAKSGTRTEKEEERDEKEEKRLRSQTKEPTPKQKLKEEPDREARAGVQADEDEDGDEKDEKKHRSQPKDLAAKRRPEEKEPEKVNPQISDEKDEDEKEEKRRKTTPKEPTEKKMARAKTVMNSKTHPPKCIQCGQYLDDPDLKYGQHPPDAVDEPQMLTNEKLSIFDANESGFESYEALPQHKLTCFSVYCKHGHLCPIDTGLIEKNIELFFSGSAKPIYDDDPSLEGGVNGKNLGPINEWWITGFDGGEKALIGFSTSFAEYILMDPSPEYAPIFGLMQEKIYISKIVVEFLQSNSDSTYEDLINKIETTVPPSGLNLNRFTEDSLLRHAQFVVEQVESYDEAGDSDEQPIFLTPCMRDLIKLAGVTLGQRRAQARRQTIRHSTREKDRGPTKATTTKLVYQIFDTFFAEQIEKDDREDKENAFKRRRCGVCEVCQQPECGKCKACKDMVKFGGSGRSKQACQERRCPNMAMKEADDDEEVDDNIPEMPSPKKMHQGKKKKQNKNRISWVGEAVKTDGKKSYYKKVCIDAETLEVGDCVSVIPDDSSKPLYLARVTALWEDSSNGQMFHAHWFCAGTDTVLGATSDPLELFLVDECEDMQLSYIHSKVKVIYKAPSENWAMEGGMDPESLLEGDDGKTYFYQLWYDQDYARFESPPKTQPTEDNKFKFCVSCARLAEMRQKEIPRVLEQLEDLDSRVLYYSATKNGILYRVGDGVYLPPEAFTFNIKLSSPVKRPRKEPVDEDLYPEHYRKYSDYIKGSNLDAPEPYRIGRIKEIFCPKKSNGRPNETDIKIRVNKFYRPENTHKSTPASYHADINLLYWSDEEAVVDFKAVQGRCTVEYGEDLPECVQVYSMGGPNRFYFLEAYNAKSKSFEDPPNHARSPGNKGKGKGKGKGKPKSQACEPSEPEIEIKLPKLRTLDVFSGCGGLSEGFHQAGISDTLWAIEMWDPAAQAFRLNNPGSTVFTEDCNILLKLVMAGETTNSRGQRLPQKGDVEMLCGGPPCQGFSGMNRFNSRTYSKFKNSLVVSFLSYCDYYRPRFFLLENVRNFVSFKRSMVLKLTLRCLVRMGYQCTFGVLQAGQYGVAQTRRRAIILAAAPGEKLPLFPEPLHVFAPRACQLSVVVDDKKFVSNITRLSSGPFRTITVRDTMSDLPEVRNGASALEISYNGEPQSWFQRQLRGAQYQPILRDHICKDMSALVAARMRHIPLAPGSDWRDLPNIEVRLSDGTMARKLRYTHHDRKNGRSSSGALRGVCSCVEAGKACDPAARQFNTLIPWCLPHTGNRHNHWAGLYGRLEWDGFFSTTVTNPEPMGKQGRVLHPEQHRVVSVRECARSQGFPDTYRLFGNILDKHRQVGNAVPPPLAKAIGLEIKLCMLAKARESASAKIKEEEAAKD

[6] = biological target: T2, Sentrin-specific protease 6 (Homo sapiens, UniProt Q9GZR1); experiment: SAR Analysis of small molecule inhibitors of Sentrin-specific protease 6 (SENP6) using a Luminescent assay. [Related pubchem assays (depositor defined):AID2582, AID2599]; assay type: functional
T2 sequence (Q9GZR1 whole entry): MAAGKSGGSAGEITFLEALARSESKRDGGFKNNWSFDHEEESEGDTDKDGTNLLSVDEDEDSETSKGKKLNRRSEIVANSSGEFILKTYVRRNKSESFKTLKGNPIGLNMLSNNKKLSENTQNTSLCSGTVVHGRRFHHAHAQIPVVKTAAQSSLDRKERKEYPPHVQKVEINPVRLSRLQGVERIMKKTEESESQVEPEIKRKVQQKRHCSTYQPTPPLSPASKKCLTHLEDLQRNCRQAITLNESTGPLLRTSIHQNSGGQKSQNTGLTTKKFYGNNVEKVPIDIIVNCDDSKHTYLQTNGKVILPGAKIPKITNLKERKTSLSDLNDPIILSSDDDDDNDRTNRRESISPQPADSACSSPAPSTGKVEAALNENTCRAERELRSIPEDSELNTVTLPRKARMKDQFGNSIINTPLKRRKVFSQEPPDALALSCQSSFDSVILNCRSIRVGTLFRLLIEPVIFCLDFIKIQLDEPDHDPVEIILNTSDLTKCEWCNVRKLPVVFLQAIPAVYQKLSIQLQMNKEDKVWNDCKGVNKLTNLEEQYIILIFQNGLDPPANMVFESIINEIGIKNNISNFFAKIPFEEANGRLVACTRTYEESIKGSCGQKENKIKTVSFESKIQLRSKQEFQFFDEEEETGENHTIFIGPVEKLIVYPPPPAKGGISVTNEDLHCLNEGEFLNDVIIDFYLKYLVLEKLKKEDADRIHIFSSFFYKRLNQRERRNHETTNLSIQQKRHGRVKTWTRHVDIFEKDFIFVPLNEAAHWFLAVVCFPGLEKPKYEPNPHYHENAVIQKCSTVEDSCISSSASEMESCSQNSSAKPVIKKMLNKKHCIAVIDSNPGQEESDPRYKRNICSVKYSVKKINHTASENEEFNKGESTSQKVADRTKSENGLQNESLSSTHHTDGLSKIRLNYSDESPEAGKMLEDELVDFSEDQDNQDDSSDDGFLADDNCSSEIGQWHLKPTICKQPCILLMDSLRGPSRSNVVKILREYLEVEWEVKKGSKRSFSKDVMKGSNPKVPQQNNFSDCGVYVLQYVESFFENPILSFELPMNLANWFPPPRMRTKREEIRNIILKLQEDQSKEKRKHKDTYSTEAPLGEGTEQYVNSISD

[7] = biological target: T3, Sentrin-specific protease 7 (Homo sapiens, UniProt Q9BQF6); experiment: inhibition of human SENP7 cleavage activity – biochemical, luminescence, SAR follow-up (AID 504497); assay type: functional
T3 sequence (Q9BQF6 whole entry): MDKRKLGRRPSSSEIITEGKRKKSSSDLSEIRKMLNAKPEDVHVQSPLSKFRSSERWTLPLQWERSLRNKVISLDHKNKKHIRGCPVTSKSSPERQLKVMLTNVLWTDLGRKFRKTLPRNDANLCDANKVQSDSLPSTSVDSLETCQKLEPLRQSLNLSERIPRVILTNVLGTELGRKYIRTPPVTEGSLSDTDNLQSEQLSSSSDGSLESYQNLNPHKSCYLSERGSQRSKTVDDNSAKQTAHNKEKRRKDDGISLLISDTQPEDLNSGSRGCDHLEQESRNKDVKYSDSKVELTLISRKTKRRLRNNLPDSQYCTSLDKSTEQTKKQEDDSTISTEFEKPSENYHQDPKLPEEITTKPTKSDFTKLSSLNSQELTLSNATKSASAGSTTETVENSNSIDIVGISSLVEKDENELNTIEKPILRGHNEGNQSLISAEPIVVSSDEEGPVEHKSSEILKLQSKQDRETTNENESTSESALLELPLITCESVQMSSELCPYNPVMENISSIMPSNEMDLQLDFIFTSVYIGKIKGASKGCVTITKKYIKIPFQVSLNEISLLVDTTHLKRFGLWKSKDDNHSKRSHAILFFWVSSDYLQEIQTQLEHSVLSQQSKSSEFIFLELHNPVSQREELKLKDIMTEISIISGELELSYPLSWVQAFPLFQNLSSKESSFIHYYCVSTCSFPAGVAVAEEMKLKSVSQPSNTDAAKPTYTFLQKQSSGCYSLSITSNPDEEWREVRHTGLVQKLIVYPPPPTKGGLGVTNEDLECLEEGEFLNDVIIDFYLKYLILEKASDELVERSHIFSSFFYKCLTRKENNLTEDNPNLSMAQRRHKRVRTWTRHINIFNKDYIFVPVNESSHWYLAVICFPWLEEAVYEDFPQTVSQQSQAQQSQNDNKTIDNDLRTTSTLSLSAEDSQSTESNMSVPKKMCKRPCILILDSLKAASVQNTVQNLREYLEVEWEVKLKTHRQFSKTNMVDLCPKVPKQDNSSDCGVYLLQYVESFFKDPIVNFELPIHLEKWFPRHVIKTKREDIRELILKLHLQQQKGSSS

[8] = tested on: BJ; experiment: cells; assay type: functional, cell-based; details: Homo sapiens

Compound: Cn1nc(-c2ccc(Cl)cc2)nc2c(=O)n(C)c(=O)nc1-2
EC50 [1]: 4.07 µM (active) | EC50 [2]: 17.6 µM (active) | IC50 [3]: > 39.8 µM (not active)

Compound: SC1=Nc2ccccc2C1
AC50 [4]: 3.88 µM (active)

IC50 [5]: 25.1 µM (active)
Compound: NS(=O)(=O)c1ccc(NC(=O)COC(=O)c2ccc([N+](=O)[O-])s2)cc1

IC50 [6]: 82 µM (active) | IC50 [7]: > 99 µM (inactive)
Compound: CCCCNc1cc(NC(C)=O)cc2cc(OC)c(OC)cc12

Compound: O=C(Cc1ccc([N+](=O)[O-])cc1)N/N=C/c1ccc([N+](=O)[O-])o1
EC50 [8]: 15.6 µM (active)
